Laboratory results published in publication PMC7179259, “Safety, Tolerability, Pharmacokinetics, and Antimalarial Activity of the Novel Plasmodium Phosphatidylinositol 4-Kinase Inhibitor MMV390048 in Healthy Volunteers” (Antimicrobial Agents and Chemotherapy, 2020).

How the values were obtained:
[1] = test system: healthy subjects inoculated with blood-stage P. falciparum; assay: Induced blood-stage malaria (IBSM) study: safety; type: in vivo, human
Description: The second study was conducted at Q-Pharm (Brisbane, Australia) from 27 October 2014 to 19 December 2014. This was an IBSM, phase 1b, single-center, open-label study, in which a single dose of MMV390048 was administered to subjects previously inoculated with blood-stage P. falciparum. This study was planned to consist of two dose cohorts; however, a second cohort was not enrolled due to the high variability in pharmacokinetic profiles observed in the first cohort and in the first-in-human study (see Results). The IBSM study commenced when the first two dose cohorts of the first-in-human study had been completed. MMV390048 was administered in the first-in-human and IBSM studies in a powder-in-bottle formulation.
(ii) IBSM study. The dose of MMV390048 chosen (20 mg) was based on the pharmacokinetic, safety, and tolerability data available from the first-in-human study at the time the IBSM study commenced (when 5- and 20-mg-dose cohorts of the first-in-human study had been completed). This dose was below the estimated single dose required to achieve complete cure calculated from preclinical studies (80 to 100 mg) since recrudescence allows for characterization of the pharmacokinetic/pharmacodynamic relationship between MMV390048 and P. falciparum parasitemia. Subjects were inoculated intravenously on day 0 with erythrocytes infected with ∼1,800 viable chloroquine-sensitive P. falciparum 3D7 parasites ([17]). Fasted (≥8 h) subjects were dosed with MMV390048 when they reached the parasitemia threshold for treatment (∼1,000 parasites ml^−1) and were followed up until the end-of-study visit on day 28.
Safety endpoints were the incidence, severity, and relationship to the investigational product (and inoculum for the IBSM study) of observed and self-reported adverse events (AEs), and changes from baseline in physical examination, vital signs, standard electrocardiograms (ECGs), continuous ECGs (first-in-human study only), and laboratory evaluation (hematology, coagulation parameters, hemolysis panel, clinical chemistry, and urinalysis) findings. […] AE severity was evaluated according to the Common Terminology Criteria for Adverse Events version 4.03 ([18]) and the World Health Organization recommendations for grading acute and subacute toxic effects ([19]).

[2] = Stability of stock solutions in dimethylsulfoxide; type: physicochemical
Excerpt: page 28: Determination of MMV390048 from 50 µ L human plasma by LC -MS/MS A method was validated for the quantification of MMV390048 in human plasma, and consisted of a protein precipitation extraction, followed by high performance liquid chromatography with MS/MS detection. MMV390048- d3 was used as the internal standard. Analyte mean extraction yield was approximately 106.5 % (CV% = 6.2). The extraction procedure was followed by liquid chromatographic separation using a Waters Atlantis T3 3 μm, 100 x 2.1 mm analytical column. An isocratic mobile phase containing water:acetonitrile (25:75 [v/v]) was used at a flow-rate of 300 μL/min. The retention times for MMV390048 and MMV390048- d3 were 1.16 min and 1.16 min, respectively. An AB Sciex API 4000 mass spectrometer at unit resolution in the multiple reaction monitoring mode was used to monitor the transition of the protonated precursor ions, 394.145 m/z and 397.148 m/z, to the product ions, 297.0 m/z and 297.0 m/z, for MMV390048 and the internal standard, respectively. Electro -spray ionisation was used for ion production. Accuracy and precision were assessed over three consecutive, independent runs. The calibration curve fits a quadratic (weighted by 1/x) regressions for MMV390048 over the ranges 0.500 –2000 ng/mL, based on peak area ratios. The assay was successfully cross- validated on a second/back- up API 4000 instrument. […]

[3] = test system: P. falciparum; parameters: method as in PMID 28446690; details: humanized SCID mice infected with P. falciparum; cited from earlier work
[4] = test system: rats; parameters: method as in not given; details: preclinical toxicology studies in rats; ref not given; cited from earlier work

In the case of `CS(=O)(=O)c1ccc(-c2cnc(N)c(-c3ccc(C(F)(F)F)nc3)c2)cc1` [MMV390048], the “AEs deemed related to malaria” value ([1]; 20 mg) is reported as 81.3%, the “No. (%) of subjects with adverse events: All AEs, Treatment related” value ([1]; 20 mg (n = 6)) is reported as 0 and the “No. (%) of subjects with adverse events: Grade 2 AEs” value ([1]; 20 mg (n = 6)) is reported as 3 (50). For the same compound, the “No. (%) of subjects with adverse events: Grade 2 AEs, Treatment related” value ([1]; 20 mg (n = 6)) was 0, the “No. (%) of subjects with adverse events: Grade 3 AEs” value ([1]; 20 mg (n = 6)) was 0 and the “No. (%) of subjects with adverse events: SAEs” value ([1]; 20 mg (n = 6)) was 0. The “No. of adverse events: All AEs” value ([1]; 20 mg (n = 6)) was 32, the “No. of adverse events: Grade 2 AEs” value ([1]; 20 mg (n = 6)) was 9 and the “No. of adverse events: Grade 2 AEs, Treatment related” value ([1]; 20 mg (n = 6)) was 0. For the same compound, the “No. of adverse events: Grade 3 AEs” value ([1]; 20 mg (n = 6)) was 0, the “No. of adverse events: SAEs” value ([1]; 20 mg (n = 6)) was 0 and the “AEs mild in severity” value ([1]; 20 mg, 23/32 AEs) was 71.9%. The “headache (most common AE), cases” value ([1]; 20 mg, in 4 subjects) was 7, the “stock solution in dimethylsulfoxide stable for” value ([2]; room temperature, 4°C and -20°C) was 24 h and the “stock solution in dimethylsulfoxide stable for” value ([2]; stored at -80°C) was 1610 h. The “effective concentration to achieve 90% of the maximal kill rate (EC90)” value [3] was 0.16 µg/mL and the testicular toxicity [4] was “testicular toxicity was observed”.
